Results reported in patent US7206699B2, “Methods for measuring therapy resistance” (Virco N.V., priority 2000, dated 2007).
Like-named read-outs stand apart in the source and are kept apart here.

Tested on: HIV-1
Conditions: for Geometric Mean Phenotype: fold change in IC50 vs wild type; for Average Phenotype (log): log fold change
[1] = RT codon 41 ANY, 184 ANY, 215 ANY, N 13255
[2] = RT codon 41 L, 184 WT, 215 WT, N 54
[3] = RT codon 41 WT, 184 V/I, 215 F/Y, N 673
[4] = RT codon 41 WT, 184 V/I, 215 WT, N 2172
[5] = RT codon 41 WT, 184 WT, 215 WT, N 4826

Text: The whole process can be divided into three phases: molecular biology, transfection and susceptibility testing.
• Viral RNA fragments extracted from patient's blood sample • Complementary DNA (cDNA) of the gag-PR-RT sequence, through to codon 400 formed via reverse transcription • Gag-PT-RT sequence multiplied using two rounds of PCR • Purification of the DNA fragments • Creation of laboratory proviral clone with gag-PR-RT sequence deleted • Insertion of the clone into bacterial plasmids for reproduction of large quantities. Transfection This is the process by which viral genes are transferred to a cell. • 1. The gag-PR-RT sequences from the patient sample and the plasmid fragments are mixed with CD4+, MT4 cells. • 2. Electroporation takes place: the cells are subject to a short (milliseconds), but strong current in a cuvette producing transient openings in the cell membrane, through which both the gag-PR-RT DNA fragment and the plasmid fragment enter. • 3. In a relatively small proportion of the cells, both fragments will meet up and, probably supported by a cellular enzyme, recombine to form a complete HIV-1 genome that can now be converted into infectious virus particles. • 4. The recombinant virus is then grown in this cell culture for approximately 8 days, until the cytopathogenic effect or CPE reaches a sufficient level. • 5. The medium is then centrifuged to separate out the cells and the supernatant contains large quantities of recombinant virus—the virus stock harvest. • 6. The virus is then titrated to achieve a known concentration. Susceptibility Testing
Different concentrations of the antiviral agents are placed in the 384 microwells of a microtiter test plate. Several wells are used for each concentration and the mean results used to increase reliability. • 2. A set dilution of the recombinant virus stock or wild type control virus is added to each microwell. • 3. A set dilution of MT4 cells containing a fluorescent reporter gene system is also added to each microwell. • 4. The plate is incubated for 3 days during which time the recombinant virus will replicate in the MT4 cells unless inhibited by the antiviral drug. Replication triggers the reporter gene, which produces proteins which fluoresce. • 5. The amount of viral replication at each concentration of drug is measured by computerized spectrophotometry, relative to the wild type virus controls. • 6. The susceptibility of the virus to each drug is expressed as a fold change in IC50 relative to wild type virus. • 7.
Plasma samples were obtained from patients and submitted to laboratories for routine assessment of drug susceptibility.

Cc1cn([C@H]2C[C@H](N=[N+]=[N-])[C@@H](CO)O2)c(=O)[nH]c1=O [AZT, zidovudine]
Geometric Mean Phenotype [1]: 3.9 fold | Geometric Mean Phenotype [2]: 1.7 fold | Geometric Mean Phenotype [3]: 6.2 fold | Geometric Mean Phenotype [4]: 1.3 fold | Geometric Mean Phenotype [5]: 1.3 fold | mean fold resistance, increase (genetic clusters with multiple mutations conferring AZT resistance, FIG. 8): ~100 fold | effect of including the 184V mutation together with AZT resistance mutations (genetic clusters with vs without 184V/I, FIG. 8): substantial reduction in the predicted magnitude of AZT resistance | Average Phenotype (log) [1]: 0.59 | Average Phenotype (log) [2]: 0.24 | Average Phenotype (log) [3]: 0.79 | Average Phenotype (log) [4]: 0.10 | Average Phenotype (log) [5]: 0.12 | mean fold resistance of genetic cluster, in words (virus harbouring the 184V mutation, FIG. 8): slightly reduced level of susceptibility
